Experimental data published in PMC11882969 (Nature Communications, 2025).
Where “and” joins values, the source holds several entries; their conditions need not be identical. Identical values can stand only once.

Columns and labels:
mice = assay: Tail flick, 50 °C water bath; assay type: in vivo, mouse; conditions: individual animals, sheet Figure7b, test not given
hCB1 = hCB1 (Homo sapiens, UniProt P21554); assay: GloSensor cAMP accumulation assay; assay type: cell-based
Method: Briefly, hCB1-expressing cells were transfected with the GloSensor cAMP DNA construct overnight. […] The results were analyzed using GraphPad Prism 9. Each experiment was performed in triplicate and functional IC50 values were determined from the mean of three independent experiments.

[1] = target: T1, CB1R with G protein (Gi1-3, Go) (Homo sapiens, UniProt P21554); assay: GTP turnover assay (GTPase-Glo); assay type: biochemical; conditions: replicates, sheet FigS3c
T1 construct: a N-terminal FLAG tag and C-terminal histidine tag was added to human full-length CB1; FLAG (N); histidine tag (C); made in house; host or cells: CB1R: Spodoptera frugiperda Sf9; G proteins: Trichoplusia ni Hi5
T1 sequence (P21554 whole entry): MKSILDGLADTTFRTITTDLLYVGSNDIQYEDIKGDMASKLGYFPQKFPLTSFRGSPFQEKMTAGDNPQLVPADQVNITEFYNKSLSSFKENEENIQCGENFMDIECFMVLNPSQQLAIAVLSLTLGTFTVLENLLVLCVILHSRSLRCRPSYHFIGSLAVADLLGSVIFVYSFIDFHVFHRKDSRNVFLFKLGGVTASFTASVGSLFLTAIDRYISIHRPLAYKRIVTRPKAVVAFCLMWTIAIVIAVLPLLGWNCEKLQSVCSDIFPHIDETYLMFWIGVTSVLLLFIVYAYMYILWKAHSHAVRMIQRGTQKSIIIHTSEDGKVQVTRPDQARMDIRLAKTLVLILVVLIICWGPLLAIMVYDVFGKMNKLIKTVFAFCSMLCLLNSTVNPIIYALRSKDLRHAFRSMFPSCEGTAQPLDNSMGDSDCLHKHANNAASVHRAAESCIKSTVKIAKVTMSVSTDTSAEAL
Method: Analysis of GTP turnover was performed by using a modified protocol of the GTPase-Glo^TM assay (Promega) described previously. Ligand-bound (10 μM ligand incubated for one hour at room temperature) or apo CB1R (1 μM) was mixed with G protein (1 μM) in 20 mM HEPES, pH 7.5, 50 mM NaCl, 0.01% L-MNG/0.001% CHS, 100 μM TCEP, 10 μM GDP and 10 μM GTP and incubated at room temperature. GTPase-Glo-reagent was added to the sample after incubation for 60 min (Gi1-3) and 20 min for (Go). Luminescence was measured after the addition of detection reagent and incubation for 10 min at room temperature using a SpectraMax Paradigm plate reader.

hCB1, sequence (P21554 whole entry): as above

| SMILES | Response relative to baseline (baseline about 100) (mice; '4042 0.05 mg/kg, 0.05 mg/kg) | Response relative to baseline (baseline about 100) (mice; '4042 0.1 mg/kg, 0.1 mg/kg) | Emax (hCB1) | Glosensor cAMP pEC50 (hCB1) | GTP turnover, normalised (FUB about 100) ([1]; Gi2) | GTP turnover, normalised (FUB about 100) ([1]; Gi3) | GTP turnover, normalised (FUB about 100) ([1]; Goa) | GTP turnover, normalised (FUB about 100) ([1]; first block, G protein not printed (Gi2, Gi3, Goa follow)) | EC50 (hCB1) |
| --- | --- | --- | --- | --- | --- | --- | --- | --- | --- |
| COC(=O)C(C)(NC(=O)c1cc(C)n(-c2cccc(C(F)(F)F)c2)n1)c1cccs1 (centres unmarked) [‘4042] | 262 and 191 and 164 and 198 and 183 | 419.4 and 155.9 and 181.4 and 122.5 and 239.8 | 91% | 10.4 [10.3 – 10.5] |  |  |  |  |  |
| COC(=O)[C@](C)(NC(=O)c1cc(C)n(-c2cccc(C(F)(F)F)c2)n1)c1cccs1 [‘8690] |  |  |  |  | 16.9643 and 39.0749 and 37.2739 and 44.0104 and 47.8141 and 43.1917 | 40.931 and 39.8765 and 45.2237 and 46.1547 and 48.6065 and 44.9238 | 61.5575 and 70.4664 and 69.7244 and 64.4739 and 72.6259 and 67.4132 | 38.198 and 43.143 and 41.7234 and 41.9514 and 39.8163 and 42.5776 |  |
| COC(=O)C(NC(=O)c1cc(C)n(-c2cccc(C(F)(F)F)c2)n1)c1cccs1 (centres unmarked) [‘60154] |  |  | 82% | 7.6 [7.4 – 7.8] |  |  |  |  | 25.2 nM |
